The values below come from ChEMBL document CHEMBL2016476, “Phosphonium lipocations as antiparasitic agents” (Bioorg Med Chem Lett, 2012).

Each structure is given as a SMILES string.

One data set deals with Plasmodium falciparum. The data set is described as follows: microbe, parasite or virus in culture. To be noted: W2.
Data set [1] in a line: Octanol-water partition coefficient, log D of the compound at pH 7.4. Type of data set: physicochemical.
In data set [2] the test system is Vero. The data set is described as follows: Cytotoxicity against african green monkey Vero cells at 25 uM after 3 days. It counts as cell-based. To be noted: chlorocebus sabaeus, 72 h.
In the next data set the test system is Trypanosoma cruzi. The data set can be described thus: Antitrypanosomal activity against Trypanosoma cruzi Tulahuen 2 infected in african green monkey Vero cells expressing red fluorescent protein after 3 days by fluorescence analysis. It counts as functional, organism-based. To be noted: Tulahuen 2, Vero, 72 h.
For data set [3], the system named is Vero. The data set is described as follows: Cytotoxicity against african green monkey Vero cells at 6.25 uM after 3 days. It counts as cell-based. To be noted: chlorocebus sabaeus, 72 h.

Description for Plasmodium falciparum: Antiplasmodial activity against Plasmodium falciparum W2 infected in human erythrocytes

For orientation: IC50 means the concentration that inhibits the measured activity by half. Usually logD stands for the decadic logarithm of the distribution of all forms, ionised or not, between an organic phase and buffer at a given pH. Molecule `CC1=C(CCCCCCCCCC[P+](C)(C)C)C(=O)c2ccccc2C1=O` showed a half-maximal inhibitory concentration (IC50) with Plasmodium falciparum of 404 nM. This molecule also returned a pH-dependent lipophilicity (logD) in data set [1] of 1.95.

Molecule `C[P+](C)(C)CCCCCCCCCCN1C(=O)c2ccccc2C1=O` registered a half-inhibitory concentration (IC50) in the data set on Plasmodium falciparum of over 10000 nM. This molecule gave a pH-dependent lipophilicity (logD) in data set [1] of -0.08.

As for `O=C1c2ccccc2C(=O)N1CCCC[P+](c1ccccc1)(c1ccccc1)c1ccccc1`, the midpoint of inhibition with Plasmodium falciparum, the IC50, lay at 3500 nM. The pH-dependent lipophilicity (logD) in data set [1] is reported as 0.01.

`O=C1c2ccccc2C(=O)N1CCCCCC[P+](c1ccccc1)(c1ccccc1)c1ccccc1`: the IC50 with Plasmodium falciparum was determined as 1020 nM. Moreover, the pH-dependent lipophilicity (logD) in data set [1] amounted to 1.14.

For the molecule `O=C1c2ccccc2C(=O)N1CCCCCCCCCC[P+](c1ccc(F)cc1)(c1ccc(F)cc1)c1ccc(F)cc1`, in the data set with Plasmodium falciparum, the IC50 is 346 nM. The logD in data set [1] turned out to be 2.13.

Molecule `O=C1c2ccccc2C(=O)N1CCCCCCCCCC[P+](Cc1ccccc1)(Cc1ccccc1)Cc1ccccc1` showed an IC50 in the data set on Plasmodium falciparum of 288 nM. This molecule also came in with a pH-dependent lipophilicity (logD) in data set [1] of 1.37.

In the data set on Plasmodium falciparum, `CCCC[P+](CCCC)(CCCC)CCCCCCCCCCN1C(=O)c2ccccc2C1=O` gave a half-maximal inhibitory concentration (IC50) of 194 nM. This molecule also displayed a log distribution coefficient (logD) in data set [1] of 3.68.

`O=C1c2ccccc2C(=O)N1CCCCCCCCCC[P+](c1ccccc1)(c1ccccc1)c1ccccc1` returned an IC50 with Plasmodium falciparum of 173 nM. In data set [1], the pH-dependent lipophilicity (logD) was 1.67.

`Cc1ccccc1[P+](CCCCCCCCCCN1C(=O)c2ccccc2C1=O)(c1ccccc1C)c1ccccc1C` had an IC50 in the data set on Plasmodium falciparum of 143 nM. Further, in data set [1], the pH-dependent lipophilicity (logD) is recorded as -0.75.

For the molecule `O=C1c2ccccc2C(=O)N1CCCCCCCCCC[P+](C1CCCCC1)(C1CCCCC1)C1CCCCC1`, the concentration for half-maximal inhibition (IC50) in the data set with Plasmodium falciparum turned out to be 141 nM. For the same molecule, in data set [1], the pH-dependent lipophilicity (logD) came to 4.5.

In the data set with Plasmodium falciparum, `COc1ccc([P+](CCCCCCCCCCN2C(=O)c3ccccc3C2=O)(c2ccc(OC)cc2)c2ccc(OC)cc2)cc1` yielded a 50% inhibitory concentration (IC50) of 134 nM. Besides, the log distribution coefficient (logD) in data set [1] is given as 3.19.

As for `O=C1C=C(NCC[P+](c2ccccc2)(c2ccccc2)c2ccccc2)C(=O)c2ccccc21`, the IC50 with Plasmodium falciparum was 520 nM. This molecule also gave a log distribution coefficient (logD) in data set [1] of -1.08.

`O=C1C=C(NCCCCCCCCCC[P+](c2ccc(F)cc2)(c2ccc(F)cc2)c2ccc(F)cc2)C(=O)c2ccccc21` registered an IC50 in the data set with Plasmodium falciparum of 292 nM. This molecule showed a logD in data set [1] of 1.67.

`O=C1C=C(NCCCCCCCCCC[P+](Cc2ccccc2)(Cc2ccccc2)Cc2ccccc2)C(=O)c2ccccc21` gave an IC50 in the data set on Plasmodium falciparum of 215 nM. This molecule had a logD in data set [1] of 2.8.

Take `COc1ccc([P+](CCCCCCCCCCNC2=CC(=O)c3ccccc3C2=O)(c2ccc(OC)cc2)c2ccc(OC)cc2)cc1`: in the data set with Plasmodium falciparum, the 50% inhibitory concentration (IC50) amounted to 134 nM. This molecule also yielded a logD in data set [1] of 4.37.

On to `O=C1C=C(NCCCCCCCCCC[P+](c2ccccc2)(c2ccccc2)c2ccccc2)C(=O)c2ccccc21`, for which the figures for the 50% inhibitory concentration (IC50) with Plasmodium falciparum and in the data set with Trypanosoma cruzi were 114 nM and 1600 nM, respectively. Also, the Activity entry with Vero [2] and in the data set with Vero [3] was “Toxic” throughout. In data set [1], this molecule gave a pH-dependent lipophilicity (logD) of 3.6.

On to `O=C1C=C(NCCCCCCCCCC[P+](C2CCCCC2)(C2CCCCC2)C2CCCCC2)C(=O)c2ccccc21`, for which the 50% inhibitory concentration (IC50) with Plasmodium falciparum came out at 94.4 nM. The log distribution coefficient (logD) in data set [1] is given as 3.41.

On to `O=C1C=C(CCCCCCCCCC[P+](Cc2ccccc2)(Cc2ccccc2)Cc2ccccc2)C(=O)c2ccccc21`, for which the half-inhibitory concentration (IC50) in the data set with Plasmodium falciparum came to 1300 nM; in the data set on Trypanosoma cruzi, 3000 nM. The Activity entry in the data set with Vero [2] and with Vero [3] was “Non-toxic” throughout. Also, the logD in data set [1] was determined as 5.32.

The molecule `O=C1C=C(CCCCCCCCCC[P+](c2ccc(F)cc2)(c2ccc(F)cc2)c2ccc(F)cc2)C(=O)c2ccccc21` showed a concentration for half-maximal inhibition (IC50) with Plasmodium falciparum of 846 nM. Moreover, in data set [1], the logD is 1.66.

In the data set with Plasmodium falciparum, `O=C1C=C(CCCCCCCCCC[P+](c2ccccc2)(c2ccccc2)c2ccccc2)C(=O)c2ccccc21` had an IC50 of 259 nM. Further, in data set [1], the logD was 4.08.

`O=C1C=C(CCCCC[P+](c2ccccc2)(c2ccccc2)c2ccccc2)C(=O)c2ccccc21` returned an IC50 in the data set on Plasmodium falciparum of 157 nM. This molecule also gave a logD in data set [1] of 1.

For the molecule `CC1=C(CCCCC[P+](C)(C)C)C(=O)c2ccccc2C1=O`, half-maximal inhibition with Plasmodium falciparum (IC50) required 956 nM. The molecule also showed a logD in data set [1] of 0.21.

Take `CC1=C(C[P+](c2ccccc2)(c2ccccc2)c2ccccc2)C(=O)c2ccccc2C1=O`: in the data set with Plasmodium falciparum, the midpoint of inhibition, the IC50, lay at 543 nM. Further, the logD in data set [1] turned out to be 1.89.

For `CC1=C(CCCCCCCCCC[P+](Cc2ccccc2)(Cc2ccccc2)Cc2ccccc2)C(=O)c2ccccc2C1=O`, the 50% inhibitory concentration (IC50) in the data set on Plasmodium falciparum was found to be 212 nM; with Trypanosoma cruzi it was 3700 nM. The Activity result in the data set on Vero [2] is recorded as “Toxic”; in the data set with Vero [3] it was “Non-toxic”. This molecule also came in with a pH-dependent lipophilicity (logD) in data set [1] of 6.64.

Turning to `CCCC[P+](CCCC)(CCCC)CCCCCCCCCCC1=C(C)C(=O)c2ccccc2C1=O`, the IC50 in the data set on Plasmodium falciparum was 156 nM; with Trypanosoma cruzi, 4000 nM. Further, the Activity result in the data set with Vero [2] is listed as “Toxic”; in the data set with Vero [3] it was “Non-toxic”. This molecule also had a pH-dependent lipophilicity (logD) in data set [1] of 5.1.

In turn, `CC1=C(CCCCCCCCCC[P+](c2ccccc2C)(c2ccccc2C)c2ccccc2C)C(=O)c2ccccc2C1=O` returned an IC50 in the data set on Plasmodium falciparum of 143 nM. In data set [1], this molecule returned a logD of 3.58.

`CC1=C(CCCCCCCCCC[P+](c2ccccc2)(c2ccccc2)c2ccccc2)C(=O)c2ccccc2C1=O`: the 50% inhibitory concentration (IC50) came to 143 nM in the data set on Plasmodium falciparum and 1600 nM with Trypanosoma cruzi. In addition, the Activity entry with Vero [2] and with Vero [3] was “Toxic” throughout. In data set [1], this molecule displayed a pH-dependent lipophilicity (logD) of 3.97.

Turning to `CC1=C(CCCCCCCCCC[P+](C2CCCCC2)(C2CCCCC2)C2CCCCC2)C(=O)c2ccccc2C1=O`, the half-inhibitory concentration (IC50) in the data set on Plasmodium falciparum turned out to be 134 nM; in the data set on Trypanosoma cruzi it was 2400 nM. The values for the Activity entry in the data set with Vero [2] and in the data set on Vero [3] were “Toxic” and “Non-toxic”, respectively. In data set [1], this molecule had a log distribution coefficient (logD) of 3.64.

Take `COc1ccc([P+](CCCCCCCCCCC2=C(C)C(=O)c3ccccc3C2=O)(c2ccc(OC)cc2)c2ccc(OC)cc2)cc1`: half-maximal inhibition with Plasmodium falciparum (IC50) required 131 nM. The log distribution coefficient (logD) in data set [1] turned out to be 3.52.

As to `CC1=C(CCCCC[P+](c2ccccc2)(c2ccccc2)c2ccccc2)C(=O)c2ccccc2C1=O`, the IC50 was 48.3 nM with Plasmodium falciparum and 5400 nM with Trypanosoma cruzi. Further, the Activity entry was “Toxic” with Vero [2] and “Non-toxic” with Vero [3]. This molecule also came in with a logD in data set [1] of 2.15.

Regarding `CC1=C(CCCC[P+](c2ccccc2)(c2ccccc2)c2ccccc2)C(=O)c2ccccc2C1=O`, the half-inhibitory concentration (IC50) worked out at 18.7 nM with Plasmodium falciparum and 2700 nM in the data set with Trypanosoma cruzi. Also, the Activity entry in the data set on Vero [2] and in the data set with Vero [3] was “Non-toxic” in each case. In addition, the logD in data set [1] was 1.91.

For `CCCCCCCCCNC1=CC(=O)c2ccccc2C1=O`, the results for the concentration for half-maximal inhibition (IC50) in the data set with Plasmodium falciparum and in the data set with Trypanosoma cruzi were over 10000 nM and 17300 nM, respectively. For the same molecule, the Activity entry in the data set on Vero [2] and with Vero [3] was “Non-toxic” in each case.

Take `CCCCCCCCCCC1=CC(=O)c2ccccc2C1=O`: the half-inhibitory concentration (IC50) in the data set on Plasmodium falciparum is over 10000 nM; in the data set on Trypanosoma cruzi it was 9300 nM. The Activity entry with Vero [2] and in the data set with Vero [3] was “Non-toxic” each time.

As to `CCCCCCCCCCN1C(=O)c2ccccc2C1=O`, the IC50 in the data set with Plasmodium falciparum is over 10000 nM.

Turning to `C[C@@H]1CC[C@H]2[C@@H](C)C(=O)O[C@@H]3O[C@@]4(C)CC[C@@H]1[C@]32OO4` [ARTEMISININ], in the data set with Plasmodium falciparum, half-maximal inhibition (IC50) required 7.31 nM.

Turning to `O=C1C(O)=C([C@H]2CC[C@H](c3ccc(Cl)cc3)CC2)C(=O)c2ccccc21` [ATOVAQUONE], inhibition in the data set on Plasmodium falciparum was half-maximal at 0.28 nM (IC50).

Regarding `O=C(Cn1ccnc1[N+](=O)[O-])NCc1ccccc1` [BENZNIDAZOLE], the Activity entry in the data set on Vero [2] and in the data set with Vero [3] was “Non-toxic” each time.

With `CCCC[P+](c1ccccc1)(c1ccccc1)c1ccccc1` [BUTYLTRIPHENYLPHOSPHONIUM], the 50% inhibitory concentration (IC50) in the data set on Plasmodium falciparum is 3500 nM.

As to `CCCCCCCCCC[P+](c1ccccc1)(c1ccccc1)c1ccccc1` [DECYLTRIPHENYLPHOSPHONIUM], in the data set on Plasmodium falciparum, half-maximal inhibition (IC50) required 142 nM.
